# Laboratory results reported in ChEMBL document CHEMBL5653631, “A Potent and Selective ULK1 Inhibitor Suppresses Autophagy and Sensitizes Cancer Cells to Nutrient Stress” (iScience, 2018).
# What was measured:
# [1] = biological target: Tyrosine-protein kinase Tec (Homo sapiens) (UniProt P42680); assay: Inhibition of human recombinant TEC at 40 nM in presence of ATP by radiometric assay relative to control
# [2] = biological target: T1, Bone morphogenetic protein receptor type-2 (Homo sapiens) (UniProt Q13873); assay: Inhibition of human recombinant BMPR2 at 40 nM in presence of ATP by radiometric assay relative to control
# T1 sequence (whole entry): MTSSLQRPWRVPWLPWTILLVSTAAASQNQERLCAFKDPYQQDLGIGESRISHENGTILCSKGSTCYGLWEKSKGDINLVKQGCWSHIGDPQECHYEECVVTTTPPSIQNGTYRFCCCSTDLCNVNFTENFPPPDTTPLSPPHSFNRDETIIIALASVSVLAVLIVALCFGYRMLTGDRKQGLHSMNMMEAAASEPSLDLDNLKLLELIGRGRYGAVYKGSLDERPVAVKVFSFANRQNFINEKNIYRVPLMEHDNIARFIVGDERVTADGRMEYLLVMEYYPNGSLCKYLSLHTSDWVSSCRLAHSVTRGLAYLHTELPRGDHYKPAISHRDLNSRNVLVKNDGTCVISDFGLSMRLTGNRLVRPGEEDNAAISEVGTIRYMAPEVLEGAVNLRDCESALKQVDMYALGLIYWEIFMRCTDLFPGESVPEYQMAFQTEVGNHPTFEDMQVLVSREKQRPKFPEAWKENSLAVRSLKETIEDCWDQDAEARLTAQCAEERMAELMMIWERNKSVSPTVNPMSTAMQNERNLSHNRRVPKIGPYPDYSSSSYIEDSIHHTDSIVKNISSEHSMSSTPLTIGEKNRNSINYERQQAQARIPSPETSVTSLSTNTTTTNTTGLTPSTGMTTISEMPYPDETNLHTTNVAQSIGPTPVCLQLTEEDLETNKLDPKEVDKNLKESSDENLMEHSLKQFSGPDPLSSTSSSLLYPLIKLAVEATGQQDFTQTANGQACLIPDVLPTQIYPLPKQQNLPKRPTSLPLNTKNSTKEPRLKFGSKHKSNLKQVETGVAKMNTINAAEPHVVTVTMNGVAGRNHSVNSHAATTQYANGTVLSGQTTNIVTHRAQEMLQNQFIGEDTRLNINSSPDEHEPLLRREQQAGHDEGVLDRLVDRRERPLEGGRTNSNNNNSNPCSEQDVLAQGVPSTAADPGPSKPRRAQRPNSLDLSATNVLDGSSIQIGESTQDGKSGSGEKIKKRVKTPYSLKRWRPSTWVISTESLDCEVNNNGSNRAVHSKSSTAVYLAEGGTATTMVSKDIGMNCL
# [3] = biological target: Serine/threonine-protein kinase 4 (Homo sapiens) (UniProt Q13043); assay: Inhibition of human recombinant MST1 at 40 nM in presence of ATP by radiometric assay relative to control
# [4] = biological target: T2, Serine/threonine-protein kinase 3 (Homo sapiens) (UniProt Q13188); assay: Inhibition of human recombinant MST2 at 15 nM in presence of ATP by radiometric assay relative to control
# T2 sequence (whole entry): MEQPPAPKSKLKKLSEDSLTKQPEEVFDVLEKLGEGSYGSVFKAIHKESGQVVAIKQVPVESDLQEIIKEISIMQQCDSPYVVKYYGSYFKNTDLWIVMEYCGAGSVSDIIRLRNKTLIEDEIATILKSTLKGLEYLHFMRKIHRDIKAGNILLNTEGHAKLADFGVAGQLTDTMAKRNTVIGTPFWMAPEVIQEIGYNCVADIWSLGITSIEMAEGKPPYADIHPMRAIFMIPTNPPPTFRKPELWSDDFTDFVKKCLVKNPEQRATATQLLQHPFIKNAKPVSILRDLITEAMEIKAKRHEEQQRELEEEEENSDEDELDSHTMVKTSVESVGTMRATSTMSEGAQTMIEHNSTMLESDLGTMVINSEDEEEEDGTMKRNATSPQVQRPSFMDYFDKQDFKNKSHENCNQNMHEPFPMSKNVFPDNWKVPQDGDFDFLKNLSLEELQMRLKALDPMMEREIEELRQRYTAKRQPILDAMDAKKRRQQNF
# [5] = biological target: Dual specificity protein kinase CLK4 (Homo sapiens) (UniProt Q9HAZ1); assay: Inhibition of human recombinant CLK4 at 15 nM in presence of ATP by radiometric assay relative to control
# [6] = biological target: Cyclin-dependent kinase-like 3 (Homo sapiens) (UniProt Q8IVW4); assay: Inhibition of human recombinant CDKL3 at 15 nM related to control ULK1
# [7] = biological target: Interferon-induced, double-stranded RNA-activated protein kinase (Homo sapiens) (UniProt P19525); assay: Inhibition of human recombinant PKR at 15 nM related to control ULK1
# [8] = biological target: Platelet-derived growth factor receptor alpha (Homo sapiens) (UniProt P16234); assay: Inhibition of human recombinant PDGFRa at 15 nM related to control ULK1
# [9] = biological target: Death-associated protein kinase 3 (Homo sapiens) (UniProt O43293); assay: Inhibition of human recombinant DAPK3 at 500 nM related to control ULK1
# [10] = biological target: T3, Testis-specific serine/threonine-protein kinase 4 (Homo sapiens) (UniProt Q6SA08); assay: Inhibition of human recombinant TSSK4 at 500 nM related to control ULK1
# T3 sequence (whole entry): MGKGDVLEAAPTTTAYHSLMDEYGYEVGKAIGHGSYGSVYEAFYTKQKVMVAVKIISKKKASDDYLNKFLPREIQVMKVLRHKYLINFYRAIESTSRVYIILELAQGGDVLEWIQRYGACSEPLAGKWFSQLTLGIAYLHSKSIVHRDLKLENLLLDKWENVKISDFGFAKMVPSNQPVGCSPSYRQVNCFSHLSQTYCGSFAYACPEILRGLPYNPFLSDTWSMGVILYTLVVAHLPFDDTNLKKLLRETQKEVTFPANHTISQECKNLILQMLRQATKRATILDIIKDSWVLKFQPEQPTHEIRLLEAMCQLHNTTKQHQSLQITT
# Serine/threonine-protein kinase 4 (Homo sapiens), sequence (Q13043 whole entry, looked up): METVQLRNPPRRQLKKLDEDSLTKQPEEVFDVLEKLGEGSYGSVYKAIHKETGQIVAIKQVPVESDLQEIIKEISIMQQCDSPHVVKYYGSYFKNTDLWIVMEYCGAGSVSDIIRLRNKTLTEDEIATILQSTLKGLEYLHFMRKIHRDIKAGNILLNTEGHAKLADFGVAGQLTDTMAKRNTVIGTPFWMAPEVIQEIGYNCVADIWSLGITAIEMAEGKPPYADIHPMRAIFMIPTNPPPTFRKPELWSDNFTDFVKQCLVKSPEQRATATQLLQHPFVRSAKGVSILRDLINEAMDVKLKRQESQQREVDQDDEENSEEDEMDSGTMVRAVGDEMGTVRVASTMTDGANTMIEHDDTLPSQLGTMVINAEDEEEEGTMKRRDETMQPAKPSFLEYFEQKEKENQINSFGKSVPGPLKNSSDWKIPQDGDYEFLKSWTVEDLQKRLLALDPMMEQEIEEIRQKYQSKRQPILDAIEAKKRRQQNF
# Platelet-derived growth factor receptor alpha (Homo sapiens), sequence (P16234 whole entry): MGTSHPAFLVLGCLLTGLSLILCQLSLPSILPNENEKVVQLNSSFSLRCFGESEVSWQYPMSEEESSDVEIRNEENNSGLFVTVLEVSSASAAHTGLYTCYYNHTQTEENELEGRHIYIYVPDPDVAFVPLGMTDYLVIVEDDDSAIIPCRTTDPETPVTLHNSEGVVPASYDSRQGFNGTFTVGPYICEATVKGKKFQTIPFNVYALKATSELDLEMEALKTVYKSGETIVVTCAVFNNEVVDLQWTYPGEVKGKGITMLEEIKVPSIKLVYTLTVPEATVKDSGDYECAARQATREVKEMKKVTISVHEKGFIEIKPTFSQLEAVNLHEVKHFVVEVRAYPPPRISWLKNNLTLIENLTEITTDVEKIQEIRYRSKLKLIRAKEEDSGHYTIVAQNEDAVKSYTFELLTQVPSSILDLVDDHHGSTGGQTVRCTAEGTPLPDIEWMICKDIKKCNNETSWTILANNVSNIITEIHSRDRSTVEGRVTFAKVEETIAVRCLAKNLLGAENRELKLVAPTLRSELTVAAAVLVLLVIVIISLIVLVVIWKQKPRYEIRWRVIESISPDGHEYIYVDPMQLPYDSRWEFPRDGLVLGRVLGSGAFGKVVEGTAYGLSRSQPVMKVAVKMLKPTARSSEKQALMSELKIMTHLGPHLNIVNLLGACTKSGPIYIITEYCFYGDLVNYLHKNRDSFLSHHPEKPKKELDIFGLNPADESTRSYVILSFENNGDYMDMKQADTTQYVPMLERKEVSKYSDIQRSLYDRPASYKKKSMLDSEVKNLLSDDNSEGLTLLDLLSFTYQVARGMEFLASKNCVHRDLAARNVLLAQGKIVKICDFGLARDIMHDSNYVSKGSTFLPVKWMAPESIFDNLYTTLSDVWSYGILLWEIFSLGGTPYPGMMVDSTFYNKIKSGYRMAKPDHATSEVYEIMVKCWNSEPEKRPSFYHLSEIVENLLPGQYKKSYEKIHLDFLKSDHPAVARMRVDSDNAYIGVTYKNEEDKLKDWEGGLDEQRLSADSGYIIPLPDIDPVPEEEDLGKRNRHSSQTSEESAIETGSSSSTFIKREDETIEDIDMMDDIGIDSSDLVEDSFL
# Interferon-induced, double-stranded RNA-activated protein kinase (Homo sapiens), sequence (P19525 whole entry): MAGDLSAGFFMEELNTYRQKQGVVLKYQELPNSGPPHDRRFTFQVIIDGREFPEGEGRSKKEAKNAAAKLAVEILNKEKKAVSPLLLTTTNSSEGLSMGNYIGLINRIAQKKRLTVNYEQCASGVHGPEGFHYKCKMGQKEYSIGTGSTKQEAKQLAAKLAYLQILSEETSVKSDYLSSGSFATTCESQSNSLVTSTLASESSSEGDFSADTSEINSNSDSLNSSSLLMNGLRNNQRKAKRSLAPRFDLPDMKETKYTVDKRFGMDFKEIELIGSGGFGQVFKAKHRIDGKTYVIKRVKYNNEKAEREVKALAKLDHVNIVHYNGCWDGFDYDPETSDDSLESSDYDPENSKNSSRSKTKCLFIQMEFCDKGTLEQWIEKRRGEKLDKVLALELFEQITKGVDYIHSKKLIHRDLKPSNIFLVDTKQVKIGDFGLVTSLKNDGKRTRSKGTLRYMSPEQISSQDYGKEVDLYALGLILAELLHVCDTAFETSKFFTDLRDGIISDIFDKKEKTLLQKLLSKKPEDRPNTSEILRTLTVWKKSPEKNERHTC
# Cyclin-dependent kinase-like 3 (Homo sapiens), sequence (Q8IVW4 whole entry, looked up): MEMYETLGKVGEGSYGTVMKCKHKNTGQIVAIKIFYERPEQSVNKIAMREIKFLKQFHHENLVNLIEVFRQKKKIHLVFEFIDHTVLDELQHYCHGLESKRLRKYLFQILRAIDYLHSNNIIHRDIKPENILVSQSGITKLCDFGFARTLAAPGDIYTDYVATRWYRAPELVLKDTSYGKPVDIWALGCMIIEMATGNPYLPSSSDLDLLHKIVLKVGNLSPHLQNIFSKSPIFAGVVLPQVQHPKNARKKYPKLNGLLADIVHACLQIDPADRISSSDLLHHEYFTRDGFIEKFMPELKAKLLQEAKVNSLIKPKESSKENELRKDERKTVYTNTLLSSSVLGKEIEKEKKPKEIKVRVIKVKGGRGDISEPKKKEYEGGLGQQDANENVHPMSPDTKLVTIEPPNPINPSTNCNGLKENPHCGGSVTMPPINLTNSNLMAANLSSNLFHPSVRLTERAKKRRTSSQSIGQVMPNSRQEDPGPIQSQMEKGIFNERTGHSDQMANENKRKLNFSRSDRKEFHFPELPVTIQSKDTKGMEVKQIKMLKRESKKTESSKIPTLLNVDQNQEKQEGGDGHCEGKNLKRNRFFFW
# Tyrosine-protein kinase Tec (Homo sapiens), sequence (P42680 whole entry, looked up): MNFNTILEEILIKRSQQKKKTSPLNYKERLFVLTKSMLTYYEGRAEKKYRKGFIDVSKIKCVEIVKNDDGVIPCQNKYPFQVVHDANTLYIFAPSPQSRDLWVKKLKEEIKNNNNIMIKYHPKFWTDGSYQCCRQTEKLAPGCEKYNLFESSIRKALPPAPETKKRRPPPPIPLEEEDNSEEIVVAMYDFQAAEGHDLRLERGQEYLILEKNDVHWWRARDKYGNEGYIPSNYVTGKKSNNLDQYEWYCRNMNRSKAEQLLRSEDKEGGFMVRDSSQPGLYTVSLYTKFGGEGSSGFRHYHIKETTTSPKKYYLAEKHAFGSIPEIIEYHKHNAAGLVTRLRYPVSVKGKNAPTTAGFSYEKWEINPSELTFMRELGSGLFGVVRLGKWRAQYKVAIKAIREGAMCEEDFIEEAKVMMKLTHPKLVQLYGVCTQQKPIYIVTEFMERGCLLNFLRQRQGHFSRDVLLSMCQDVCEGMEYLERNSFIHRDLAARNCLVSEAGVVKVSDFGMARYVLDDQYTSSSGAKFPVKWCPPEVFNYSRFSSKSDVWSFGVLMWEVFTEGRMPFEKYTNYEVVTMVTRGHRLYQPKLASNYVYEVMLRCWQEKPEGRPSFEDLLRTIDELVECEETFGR
# Death-associated protein kinase 3 (Homo sapiens), sequence (O43293 whole entry, looked up): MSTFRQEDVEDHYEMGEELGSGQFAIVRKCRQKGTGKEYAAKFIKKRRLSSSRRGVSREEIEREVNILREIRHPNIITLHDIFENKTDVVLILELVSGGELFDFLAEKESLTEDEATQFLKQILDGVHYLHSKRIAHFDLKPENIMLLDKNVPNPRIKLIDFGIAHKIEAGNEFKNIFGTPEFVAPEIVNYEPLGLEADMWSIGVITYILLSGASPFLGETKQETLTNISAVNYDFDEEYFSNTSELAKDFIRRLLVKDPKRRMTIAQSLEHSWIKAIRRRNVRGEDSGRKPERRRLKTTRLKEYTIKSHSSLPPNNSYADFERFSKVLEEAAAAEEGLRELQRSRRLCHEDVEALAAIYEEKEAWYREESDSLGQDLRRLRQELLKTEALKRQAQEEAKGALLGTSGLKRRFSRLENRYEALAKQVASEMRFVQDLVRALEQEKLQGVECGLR
# Dual specificity protein kinase CLK4 (Homo sapiens), sequence (Q9HAZ1 whole entry, looked up): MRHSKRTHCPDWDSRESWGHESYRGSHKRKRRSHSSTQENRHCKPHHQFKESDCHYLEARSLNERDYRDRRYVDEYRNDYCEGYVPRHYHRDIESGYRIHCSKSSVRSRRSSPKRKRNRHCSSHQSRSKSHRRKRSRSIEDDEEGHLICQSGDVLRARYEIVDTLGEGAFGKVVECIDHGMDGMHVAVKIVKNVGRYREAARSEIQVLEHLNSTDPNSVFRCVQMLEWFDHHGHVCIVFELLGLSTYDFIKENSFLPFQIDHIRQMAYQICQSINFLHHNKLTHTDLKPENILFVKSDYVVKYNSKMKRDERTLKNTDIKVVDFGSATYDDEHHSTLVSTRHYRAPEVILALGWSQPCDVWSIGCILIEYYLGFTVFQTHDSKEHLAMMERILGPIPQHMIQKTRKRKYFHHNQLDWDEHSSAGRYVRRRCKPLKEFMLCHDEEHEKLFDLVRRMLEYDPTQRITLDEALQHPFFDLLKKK
compound,measurement,setting,value
O=C(N[C@@H](C1CC1)C(F)(F)F)c1cc(-c2cnn3cc(-c4ccc(F)cc4)cnc23)cs1,inhibition,[1],0%
same,inhibition,[2],6%
same,inhibition,[3],0%
CC(C)[C@H](NC(=O)c1cc(-c2cnn3cc(-c4ccc(OCCN5CCCCC5)cc4)cnc23)cs1)C(F)(F)F,inhibition,[4],3%
same,inhibition,[5],83%
same,fold change (FC),[6],0.39
same,fold change (FC),[7],0.02
same,fold change (FC),[8],0.06
CNC(=O)c1ccccc1Oc1nc(Nc2cc(OC)c(OC)c(OC)c2)ncc1Br,fold change (FC),[9],0.14
same,fold change (FC),[10],0
